# According to article PMC8509773, “3-Pyridinylidene Derivatives of Chemically Modified Lupane and Ursane Triterpenes as Promising Anticancer Agents by Targeting Apoptosis” (International Journal of Molecular Sciences, 2021):
# Entries after “also recorded” stand apart in the source; their conditions may differ. Marks after values point to notes of the source that are not given here.
# How the values were obtained:
# [1] = test system: chorioallantoic membrane; experiment: Chorioallantoic membrane (CAM) angiogenesis assay; type: in vivo, chicken; details: 1 µM in 0.5% DMSO, applied daily for 72 h
# Protocol: The potential effects of compounds 6 and 7 on the angiogenesis process were investigated using the chorioallantoic membrane (CAM) assay which uses fertilized chicken eggs, incubated at 37 °C, under controlled humidity. On the third day of incubation (embryonic day 3 of development, EDD 3), a small opening was made at one end of the eggs and 5–6 mL of albumen was removed, thus facilitating the separation of the chorioallantoic membrane. On EDD 4, a window was cut on the upper side of the egg and subsequently resealed, returning the specimens to the incubator. On EDD 7 (0 h), 10 µL of each test solution was administered inside a plastic ring previously applied on the intensely vascularized surface of the CAM [75, 76]. […] All samples were applied daily in the same volume for 72 h. For each analyzed sample, 5 eggs were used, and all samples were applied in triplicate. Macroscopic evaluation was daily performed in ovo by means of stereomicroscopy (ZEISS SteREO Discovery.V8, Göttingen, Germany) and all images were registered and processed by Axiocam 105 color, AxioVision SE64. Rel. 4.9.1 Software, (ZEISS Göttingen, Germany), ImageJ (ImageJ Version 1.50e, https://imagej.nih.gov/ij/index.html, accessed on 12 May 2021) and GIMP software (GIMP v 2.8, https://www.gimp.org/, accessed on 12 May 2021).
# [2] = test system: Bcl-XL gene; experiment: rtPCR gene expression in Sk-Mel-28 cells; type: cell-based, human
# From the text: (§1) We applied rtPCR techniques in order to investigate the effect of our two compounds on the anti-apoptotic Bcl-XL and Bcl-2 genes as well as the proapoptotic Bak and Bad genes (Table 4). […] Therefore, we may presume that the apoptotic mechanism of both compounds against the A375 cells is not mediated by the tested genes or that alterations in their ratio are the underlying mechanism.
# [3] = test system: Bak gene; experiment: rtPCR gene expression in Sk-Mel-28 cells; type: cell-based, human
# From the text: as §1
# [4] = test system: RPMI melanoma cells; experiment: Cell morphology assessment; type: cell-based, human; details: 5 μM, 24 h
# Protocol: In order to further investigate the biological effects of these compounds against three human melanoma cell lines, their effect on cell morphology was assessed.
# In terms of the RPMI melanoma cell line (Figure 10), a decrease in the number of cells can be observed in direct proportion to the tested concentration; for both compounds, a proapoptotic change occurred in the cellular morphology.
# [5] = test system: chorioallantoic membrane; experiment: HET-CAM irritation assay; details: for Irritation Score: 5 min
# From the text: HET-CAM assay was used in order to assess the toxicity of compounds 6 and 7 (Figure 16); the procedure is a low-cost, unique model in biomedical research that allows the testing of the irritation potency of chemical compounds while simultaneously avoiding in vivo experiments. […] The Luepke scale was used to establish the irritation score: 0–0.9 indicates non-irritant, 1–4.9 indicates weakly irritant, 5–8.9 indicates moderately irritant, and 9–21 means strongly irritant.
# Compounds 6 and 7 were also evaluated in terms of biocompatibility on mucosal tissues by using the in vivo Hen’s Egg Chorioallantoic Membrane Test (HET-CAM assay). The assay assesses a potential irritant effect on the vascular plexus of the chorioallantoic membrane. The HET-CAM method was carried out following ICCVAM recommendations published in November 2016 in Appendix G and adapted to our laboratory conditions. Thus, 300 µL of control or test solution, respectively, was applied on CAM and the alterations induced at the CAM level were monitored by means of stereomicroscopy (Discovery 8 Stereomicroscope, Zeiss), registering significant images (Axio CAM 105 color, Zeiss), before the application and after 5 min contact with the samples. All images were processed using Zeiss ZEN software, Gimp 2.8 and ImageJ software. Negative control was represented by distilled water and solvent control DMSO 0.5%, while the positive control by the sodium lauryl sulphate (SLS) 0.5% in distillate water. The test substances were tested in concentrations of 1 µM. The observation time of the produced reactions was 5 min (300 s) and the time, at which the occurrence of a particular reaction took place was recorded in seconds. Finally, the following reactions were monitored: hemorrhage—H (blood vessel bleeding), vascular lysis —L (disintegration of blood vessels), and coagulation —C (intra or extra- vascular protein denaturizing). A variety of analysis methods may be used to assess irritancy potential of test substances. One analysis method that has been used extensively used is an irritation score (IS) calculated according to the following formula: IS=5×301−SecH/300+[…]/300+9×301−SecC/300 where H = hemorrhage; L = vessel lysis; C = coagulation; Hemorrhage time (Sec H) = onset of hemorrhage reactions on CAM (in sec); Lysis time (Sec L) = onset of vessel lysis on CAM (in sec); Coagulation time (Sec C) = onset of coagulation formation on CAM (in sec). The formula comprises a factor indicating the impact of the observed effect on vascular damage, e.g., coagulation has the highest impact expressed by the multiplication factor 9. The IS values range on a scale between 0 and 21.
SMILES,Effect on the normal angiogenic process [1],"Bcl-XL gene expression, Mean [2]","Bak gene expression, Mean [3]",Effect on cell morphology [4],"Irritation Score ([5]; HET-CAM, 300 µL, 1 µM test compounds, scale 0–21)","Type of Effect ([5]; HET-CAM, Luepke scale)","Irritation Score ([5]; chicken, in vivo, 1 µM)",Type of Effect ([5]; in vivo)
"C[C@H]1[C@@H]2[C@H]3CC[C@@H]4[C@@]5(C)C/C(=C\c6cccnc6)C(=O)C(C)(C)[C@@H]5CC[C@@]4(C)[C@]3(C)CC[C@]23CO[C@@]1(C)[C@@H](C(=O)/C=C/c1cccnc1)C3 [Compound 6, 3-Oxo-2-(3-pyridinylidene)-21-[3-(2E-pyridinyl)-prop-2-en-1-one]-20β,28-epoxy-18α,19βH-ursane]",only slightly affected angiogenesis,1.606,22.826 ***,formation of vacuoles within the cell cytoplasm,0,Non irritant,,
"COC(=O)[C@]12CC[C@@H](C(=O)/C=C/c3cccnc3)[C@@H]1[C@H]1CC[C@@H]3[C@@]4(C)C/C(=C\c5cccnc5)C(=O)C(C)(C)[C@@H]4CC[C@@]3(C)[C@]1(C)CC2 [Compound 7, methyl 2,30-bis-(3-pyridinylidene)-3,20-dioxo-lup-28-oate]",did not interfere with the normal angiogenic process; also recorded: does not influence the angiogenic process,3.826,59.543 **,,,,0,Non irritant
